This note sets out measurements from ChEMBL document CHEMBL1833803, “Discovery of 1-amino-5H-pyrido[4,3-b]indol-4-carboxamide inhibitors of Janus kinase 2 (JAK2) for the treatment of myeloproliferative disorders” (J Med Chem, 2011).

SMILES strings stand for the structures. ≈ marks a conversion by molar mass, not a printed value.

Series [1] is described as follows: Selectivity ratio of IC50 for JAK3 to IC50 for JAK2.
Series [2] addresses Voltage-gated inwardly rectifying potassium channel KCNH2 (Homo sapiens, UniProt Q12809). Briefly: Inhibition of human hERG.
In a further series the target is CYP3A4 (Homo sapiens, UniProt P08684). Briefly: Inhibition of CYP3A4 at 10 uM. The class given is ADME.
CYP3A4, sequence (P08684 whole entry): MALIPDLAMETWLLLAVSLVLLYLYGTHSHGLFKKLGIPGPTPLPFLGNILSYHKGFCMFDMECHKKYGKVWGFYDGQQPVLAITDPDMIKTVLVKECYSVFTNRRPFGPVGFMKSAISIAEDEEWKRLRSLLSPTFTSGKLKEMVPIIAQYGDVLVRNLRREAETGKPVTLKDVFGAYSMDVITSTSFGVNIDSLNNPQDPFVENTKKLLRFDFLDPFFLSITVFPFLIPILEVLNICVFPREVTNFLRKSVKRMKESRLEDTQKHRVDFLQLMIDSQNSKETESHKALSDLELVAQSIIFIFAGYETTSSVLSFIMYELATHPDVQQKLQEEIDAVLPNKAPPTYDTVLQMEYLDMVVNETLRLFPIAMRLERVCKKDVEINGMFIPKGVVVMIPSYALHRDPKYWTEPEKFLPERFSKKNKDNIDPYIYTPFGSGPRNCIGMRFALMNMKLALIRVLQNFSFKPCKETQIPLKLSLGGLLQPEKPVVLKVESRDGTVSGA
The nature of series [3]: Half life in rat at 1 mg/kg, iv. On the set-up: dose 1 mg/kg, route intravenous. The series is classed as ADME, organism-based. As to conditions: in vivo.
Series [4] addresses T1, Tyrosine-protein kinase JAK2 (Homo sapiens, UniProt O60674). Briefly: Inhibition of JAK2-mediated STAT5 phosphorylation in human HEL 92.1.7 irf1-bla cells. The series is classed as cell-based.
Series [5] can be described thus: Clearance in rat at 1 mg/kg, iv. The class given is ADME, organism-based. Details: dose 1 mg/kg, route intravenous. As to conditions: in vivo.
The target in another series is CYP2C9 (Homo sapiens, UniProt P11712). The experiment in a line: Inhibition of CYP2C9 at 10 uM. The series is classed as ADME.
CYP2C9, sequence (P11712 whole entry): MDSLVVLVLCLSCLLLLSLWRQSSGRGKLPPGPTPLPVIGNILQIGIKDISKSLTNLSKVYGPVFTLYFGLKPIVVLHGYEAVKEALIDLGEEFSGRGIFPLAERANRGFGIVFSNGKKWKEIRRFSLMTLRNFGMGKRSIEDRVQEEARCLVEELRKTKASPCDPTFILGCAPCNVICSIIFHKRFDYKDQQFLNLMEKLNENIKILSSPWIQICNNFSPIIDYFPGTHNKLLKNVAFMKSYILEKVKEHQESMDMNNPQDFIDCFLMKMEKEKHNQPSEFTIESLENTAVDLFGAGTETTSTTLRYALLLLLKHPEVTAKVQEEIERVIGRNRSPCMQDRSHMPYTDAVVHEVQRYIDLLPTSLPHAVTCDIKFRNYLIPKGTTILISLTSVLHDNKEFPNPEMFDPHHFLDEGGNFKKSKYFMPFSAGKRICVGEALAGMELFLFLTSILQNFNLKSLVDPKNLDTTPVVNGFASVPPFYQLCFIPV
Series [6] concerns the target T1, Tyrosine-protein kinase JAK2. The experiment in a line: Inhibition of JAK2 using biotin-EQEDEPEGDYFEWLE- NH2 as substrate.
Series [7] deals with T2, Tyrosine-protein kinase JAK3 (Homo sapiens, UniProt P52333).
T2 sequence (P52333 whole entry): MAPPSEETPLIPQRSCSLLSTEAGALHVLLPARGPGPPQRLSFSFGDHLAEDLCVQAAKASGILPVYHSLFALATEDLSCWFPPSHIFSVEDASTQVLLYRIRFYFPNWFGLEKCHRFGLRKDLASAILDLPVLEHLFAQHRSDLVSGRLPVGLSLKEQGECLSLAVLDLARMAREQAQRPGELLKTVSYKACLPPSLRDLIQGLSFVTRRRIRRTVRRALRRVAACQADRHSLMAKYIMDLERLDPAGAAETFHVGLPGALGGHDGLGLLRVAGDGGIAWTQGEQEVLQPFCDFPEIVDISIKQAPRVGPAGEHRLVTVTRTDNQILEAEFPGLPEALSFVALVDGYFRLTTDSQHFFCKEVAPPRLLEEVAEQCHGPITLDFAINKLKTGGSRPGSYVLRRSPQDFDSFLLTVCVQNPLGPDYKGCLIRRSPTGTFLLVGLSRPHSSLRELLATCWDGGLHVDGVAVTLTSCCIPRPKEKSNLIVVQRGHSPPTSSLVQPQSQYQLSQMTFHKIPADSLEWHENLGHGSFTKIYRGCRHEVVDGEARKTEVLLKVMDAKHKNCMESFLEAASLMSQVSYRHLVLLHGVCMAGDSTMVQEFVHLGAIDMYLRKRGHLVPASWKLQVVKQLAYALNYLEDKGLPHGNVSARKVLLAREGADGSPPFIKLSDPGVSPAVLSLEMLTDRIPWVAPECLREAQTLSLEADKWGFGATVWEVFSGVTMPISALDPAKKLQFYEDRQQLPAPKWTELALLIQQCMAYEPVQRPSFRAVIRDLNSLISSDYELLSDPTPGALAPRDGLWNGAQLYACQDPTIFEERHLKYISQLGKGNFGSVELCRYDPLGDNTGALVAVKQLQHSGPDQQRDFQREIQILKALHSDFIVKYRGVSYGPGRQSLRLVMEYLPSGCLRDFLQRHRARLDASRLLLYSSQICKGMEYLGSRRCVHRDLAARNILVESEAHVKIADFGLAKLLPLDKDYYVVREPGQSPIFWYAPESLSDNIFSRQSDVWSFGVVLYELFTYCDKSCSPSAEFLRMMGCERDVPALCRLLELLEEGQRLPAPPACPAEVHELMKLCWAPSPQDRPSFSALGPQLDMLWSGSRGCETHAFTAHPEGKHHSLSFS
Briefly: Inhibition of JAK3 using biotin-EQEDEPEGDYFEWLE- NH2 as substrate.

Series [8] has as its target T1, Tyrosine-protein kinase JAK2. Briefly: Inhibition of JAK2.
In series [9] the target is T2, Tyrosine-protein kinase JAK3. Briefly: Inhibition of JAK3.
The nature of series [10]: Plasma clearance in rat at 1 mg/kg, iv and 2 mg/kg, po. The series is classed as ADME, organism-based.
Series [11] can be described thus: Lipophilicity, log D of the compound at pH 7.4. The class given is physicochemical. As to conditions: buffer.
The nature of series [12]: Oral bioavailability in rat at 2 mg/kg. The class given is ADME, organism-based. As to conditions: in vivo.
The nature of series [13]: Metabolic stability in rat hepatocytes assessed as half life. The class given is ADME, cell-based, Liver, Hepatocyte.
In series [14] the target is T1, Tyrosine-protein kinase JAK2. Briefly: Competitive inhibition of JAK2 in the presence of 15 uM ATP.
For series [15] the target is unchanged. Briefly: Competitive inhibition of JAK2 in the presence of 2 mM ATP.
Series [16] is described as follows: Aqueous solubility of the compound. The class given is physicochemical. As to conditions: buffer.

T1 sequence (O60674 whole entry): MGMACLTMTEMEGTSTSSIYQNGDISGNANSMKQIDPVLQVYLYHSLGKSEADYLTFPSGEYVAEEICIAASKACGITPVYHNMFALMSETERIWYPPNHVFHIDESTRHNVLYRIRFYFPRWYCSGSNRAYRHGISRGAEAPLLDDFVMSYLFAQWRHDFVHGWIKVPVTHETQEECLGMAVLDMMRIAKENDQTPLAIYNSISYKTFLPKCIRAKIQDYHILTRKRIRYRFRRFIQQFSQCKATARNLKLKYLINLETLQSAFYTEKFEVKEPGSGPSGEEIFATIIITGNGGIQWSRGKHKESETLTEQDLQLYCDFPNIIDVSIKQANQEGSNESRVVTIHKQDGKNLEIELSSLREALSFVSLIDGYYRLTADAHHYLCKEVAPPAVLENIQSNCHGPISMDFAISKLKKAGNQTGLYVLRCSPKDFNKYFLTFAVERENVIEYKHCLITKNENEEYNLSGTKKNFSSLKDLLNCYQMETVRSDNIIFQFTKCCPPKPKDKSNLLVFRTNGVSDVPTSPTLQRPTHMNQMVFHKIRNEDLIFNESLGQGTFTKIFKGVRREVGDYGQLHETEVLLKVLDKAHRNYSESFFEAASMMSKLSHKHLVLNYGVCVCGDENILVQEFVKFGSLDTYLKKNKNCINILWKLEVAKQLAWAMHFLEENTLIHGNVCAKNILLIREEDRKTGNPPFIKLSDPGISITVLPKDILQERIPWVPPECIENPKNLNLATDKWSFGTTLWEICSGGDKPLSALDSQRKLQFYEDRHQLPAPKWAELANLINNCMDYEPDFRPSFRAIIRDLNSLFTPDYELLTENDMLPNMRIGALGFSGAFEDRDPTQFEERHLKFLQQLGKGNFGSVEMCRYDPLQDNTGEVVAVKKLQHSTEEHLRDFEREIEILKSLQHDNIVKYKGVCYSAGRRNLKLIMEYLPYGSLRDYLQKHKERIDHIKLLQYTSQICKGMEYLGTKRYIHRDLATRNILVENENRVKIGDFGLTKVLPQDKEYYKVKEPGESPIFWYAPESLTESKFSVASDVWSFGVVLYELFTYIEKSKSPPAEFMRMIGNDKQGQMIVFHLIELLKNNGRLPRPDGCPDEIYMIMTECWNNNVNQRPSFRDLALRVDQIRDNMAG
Voltage-gated inwardly rectifying potassium channel KCNH2, sequence (Q12809 whole entry): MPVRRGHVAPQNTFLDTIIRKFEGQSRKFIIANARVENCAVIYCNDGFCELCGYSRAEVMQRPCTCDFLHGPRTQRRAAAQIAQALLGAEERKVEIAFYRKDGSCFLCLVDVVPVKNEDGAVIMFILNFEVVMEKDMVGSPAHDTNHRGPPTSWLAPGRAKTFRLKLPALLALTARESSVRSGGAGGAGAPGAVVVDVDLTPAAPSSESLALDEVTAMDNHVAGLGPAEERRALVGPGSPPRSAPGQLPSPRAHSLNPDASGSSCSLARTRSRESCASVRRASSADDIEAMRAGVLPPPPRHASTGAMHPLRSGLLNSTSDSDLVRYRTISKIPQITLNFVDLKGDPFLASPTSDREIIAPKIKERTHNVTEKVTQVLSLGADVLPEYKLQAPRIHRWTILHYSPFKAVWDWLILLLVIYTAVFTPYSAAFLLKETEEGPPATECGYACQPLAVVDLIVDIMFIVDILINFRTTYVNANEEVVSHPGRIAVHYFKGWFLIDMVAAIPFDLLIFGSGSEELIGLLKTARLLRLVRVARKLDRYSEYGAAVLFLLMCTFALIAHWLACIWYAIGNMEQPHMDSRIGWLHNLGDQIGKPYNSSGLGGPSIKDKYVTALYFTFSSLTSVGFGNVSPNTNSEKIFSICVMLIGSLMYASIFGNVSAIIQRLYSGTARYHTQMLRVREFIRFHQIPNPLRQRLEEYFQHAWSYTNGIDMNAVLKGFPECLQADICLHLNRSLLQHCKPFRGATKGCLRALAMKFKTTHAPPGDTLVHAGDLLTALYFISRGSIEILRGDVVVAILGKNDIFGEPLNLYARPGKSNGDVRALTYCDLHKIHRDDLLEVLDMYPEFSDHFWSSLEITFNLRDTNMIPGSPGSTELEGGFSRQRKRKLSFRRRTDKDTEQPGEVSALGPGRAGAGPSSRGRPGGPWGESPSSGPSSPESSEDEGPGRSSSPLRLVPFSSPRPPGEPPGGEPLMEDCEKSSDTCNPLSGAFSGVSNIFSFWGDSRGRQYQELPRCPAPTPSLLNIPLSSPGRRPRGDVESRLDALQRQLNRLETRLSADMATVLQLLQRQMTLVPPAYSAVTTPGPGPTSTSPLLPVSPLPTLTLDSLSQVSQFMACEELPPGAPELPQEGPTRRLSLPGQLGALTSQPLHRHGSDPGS

For orientation: IC50 means the point on the concentration scale where inhibition reaches its midpoint. In general, inhibition refers to the percentage by which the read-out fell short of the control. High values mean strong suppression, low ones little suppression. The term half-life denotes the time in which the quantity being followed falls by half. Take `Cn1cc(-c2ccc3c(c2)[nH]c2c(C(N)=O)cnc(NC(C4CC4)C4CC4)c23)cn1`: the Ratio IC50 in [1] was above 50. The IC50 turned out to be 1700 nM in [2], 130 nM in series [4], 2 nM in series [6] and 280 nM in [7]. Also, the inhibition at 10 µM on CYP3A4 turned out to be 62%; at CYP2C9, 80%. In series [3], this compound had a half-life of 3.2 h. In series [5], the clearance amounted to 22 mL/min/kg.

In general, logD refers to lipophilicity at a set pH, counting ionised and neutral species. Low readings indicate lower lipophilicity, high ones higher lipophilicity. What is called bioavailability is dose-corrected exposure relative to a reference, in per cent. Higher therefore signals good availability. For `O=c1[nH]ccc2c1c1cc(F)ccc1n2-c1ccccc1`, the IC50 amounted to 1100 nM in series [8] and 720 nM in [9]. For the same compound, in series [1], the Ratio IC50 turned out to be 0.7. The same compound gave a clearance in series [10] of 13 mL/min/kg. Besides, the logD in series [11] came out at 4.3. Moreover, the bioavailability in series [12] came to 89%.

For `C[C@H](Nc1ncc(C(N)=O)c2[nH]c3cc(-c4cnn(C)c4)ccc3c12)C1CC1`, in series [1], the Ratio IC50 is above 50. Further, the half-life in series [3] is 1 h; in [13], 1.02 h. Besides, the IC50 stood at 14 nM in [4], 1 nM in [6] and 140 nM in [7]. Also, the clearance in [5] came to 44 mL/min/kg.

The solubility is the dissolved amount per volume that the medium holds. Read a low solubility as little dissolved substance. For `CCNc1ncc(C(N)=O)c2[nH]c3ccc(F)cc3c12`, the IC50 in series [8] is 230 nM; in series [9], 6800 nM; in series [14] it was 230 nM; in series [15], above 15000 nM; in series [6] it was 230 nM. Also, the Ratio IC50 in series [1] was 30. Moreover, in series [11], the logD worked out at 2. The amount in solution in series [16] (solubility) came to 6 µM (≈ 1.63 µg/mL). The compound further registered a bioavailability in series [12] of 87%.

In the case of `NC(=O)c1cnc(N[C@H](C2CC2)C(F)(F)F)c2c1[nH]c1cc(-c3ccc(N)nc3)ccc12`, the Ratio IC50 in [1] was above 50. Besides, the IC50 in series [2] amounted to 750 nM; in series [4], 61 nM; in series [6], 2 nM; in [7], 370 nM. Besides, the inhibition at 10 µM was 65% on CYP3A4 and 41% against CYP2C9. In [5], the clearance was 6 mL/min/kg.
